Where a name gives a salt, the structure may show the parent alone.
Target: T1, His-PtcC (Ptc C-terminal tail) (Drosophila melanogaster, UniProt P18502)
T1 sequence (P18502 1105-1286): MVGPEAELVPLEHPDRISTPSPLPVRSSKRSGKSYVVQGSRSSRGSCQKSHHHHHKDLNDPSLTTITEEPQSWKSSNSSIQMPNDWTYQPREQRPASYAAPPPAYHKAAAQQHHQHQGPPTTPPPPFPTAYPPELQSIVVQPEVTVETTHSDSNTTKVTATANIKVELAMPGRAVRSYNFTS
Assay: solid-phase lipid dot blot
Assay type: binding
Conditions: 2 ul of 50 uM lipid on PVDF; 1 ug/ml protein in PBS; 4 C overnight

CCCCCCCCCCCCCCCCCC(=O)OC[C@H](COP(=O)(O)O)OC(=O)CCCCCCCCCCCCCCCCC [DSPA, 1,2-Distearoyl-sn-glycero-3-phosphate (sodium salt)]
solid-phase lipid dot blot: His-PtcC interacted only with DSPA and DPPA, both of which are saturated forms of PA

From paper PMC10661859 (Science signaling, 2023)
